pIC50: −log10 of the molar value.
Columns and labels:
HCT-116 = experiment: Antiproliferative activity against human HCT116 cells assessed as reduction in cell growth incubated for 72 hrs by MTT assay; type: functional, cell-based; details: HCT-116, 72 h
MCF7 [1] = experiment: Antiproliferative activity against human MCF7 cells assessed as reduction in cell growth incubated for 72 hrs by MTT assay; type: functional, cell-based; details: MCF7, 72 h
TERT-RPE1 = experiment: Cytotoxicity against human RPE1 cells assessed as reduction in cell growth incubated for 72 hrs by MTT assay; type: cell-based; details: RPE-1, 72 h
[2] = biological target: T1, Peroxisome proliferator-activated receptor gamma (Homo sapiens, UniProt P37231); experiment: Antagonist activity at human PPARgamma LBD expressed in yeast AH109 cells assessed as reduction in rosiglitazone-stimulated PPARgamma/CBP interaction by measuring alpha galactosidase activity using PNP-alpha-Gal as substrate by alpha-galactosidase based yeast-two hybrid assay; type: cell-based
T1 sequence (P37231 whole entry): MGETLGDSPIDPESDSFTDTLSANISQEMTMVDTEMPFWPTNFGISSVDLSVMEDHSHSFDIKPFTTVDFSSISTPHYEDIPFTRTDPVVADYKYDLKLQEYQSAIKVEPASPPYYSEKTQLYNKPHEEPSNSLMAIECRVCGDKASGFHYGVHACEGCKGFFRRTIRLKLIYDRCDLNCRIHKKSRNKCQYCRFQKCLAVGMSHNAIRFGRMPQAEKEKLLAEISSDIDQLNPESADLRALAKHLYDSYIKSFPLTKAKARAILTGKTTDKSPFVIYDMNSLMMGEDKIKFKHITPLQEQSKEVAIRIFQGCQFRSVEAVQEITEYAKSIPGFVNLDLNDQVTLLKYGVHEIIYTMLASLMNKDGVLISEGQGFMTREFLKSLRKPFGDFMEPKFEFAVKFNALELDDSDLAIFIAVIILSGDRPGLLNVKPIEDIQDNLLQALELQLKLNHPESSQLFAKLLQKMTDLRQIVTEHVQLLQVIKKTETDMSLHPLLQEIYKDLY

MCF7 [3] = experiment: Antiproliferative activity against human MCF7 cells assessed as reduction in cell growth incubated for 48 hrs by MTT assay; type: functional, cell-based; details: MCF7, 48 h

Structure (SMILES)	pIC50 (HCT-116)	pIC50 (MCF7 [1])	pIC50 (TERT-RPE1)	pIC50 [2]	pIC50 (MCF7 [3])
C=C1CN(C)/C(=N/c2ccccc2)S1	< 4.00	< 4.00	< 4.00		
FC(F)(F)c1cc(/N=C2/NC/C(=C/c3ccccc3)S2)cc(C(F)(F)F)c1	4.79	4.87	4.48		
COc1ccc(/C=C2\S/C(=N\c3ccc(Cl)cc3)N(C)C2=O)cc1	4.98	4.41	< 4.00		
COc1ccc(/C=C2\S/C(=N\c3ccc(Br)cc3)N(C)C2=O)cc1	4.77	< 4.00	< 4.00		
COc1ccc(/C=C2\S/C(=N\c3ccccc3)N(C)C2=O)cc1	< 4.00	< 4.00	< 4.00		
S=C(Nc1ccccc1)N1C/C(=C/c2ccccc2)S/C1=N\c1ccccc1	< 4.00	< 4.00	< 4.00		
COc1ccc(/C=C2/CN(C)/C(=N/c3ccc(OC)cc3)S2)cc1	4.80	5.06	4.18		
COc1ccc(/C=C2\S/C(=N\c3ccc(F)cc3)N(C)C2=O)cc1	4.88	4.18	< 4.00		
COc1ccc(/C=C2/CN(C)/C(=N/c3ccc(Br)cc3)S2)cc1	5.05	5.13	4.21		
COc1ccc(/C=C2\S/C(=N\c3ccc(C)cc3)N(C)C2=O)cc1	< 4.00	< 4.00	< 4.00		
CCOc1cc(/C=C2\S/C(=N/c3ccc(Cl)c(C(=O)O)c3)N(C)C2=O)cc(Cl)c1O				5.10	3.97
C=CC/N=C1/NCC(=C)S1	< 4.00	< 4.00	< 4.00		
COc1ccc(/C=C2/CN(C)/C(=N/c3ccc(Cl)cc3)S2)cc1	5.01	5.12	4.40		
COc1ccc(/C=C2/CN(C)/C(=N/c3ccc([N+](=O)[O-])cc3)S2)cc1	4.99	5.01	< 4.00		
O=c1[nH]cc(F)c(=O)[nH]1 [FLUOROURACIL]	4.69	5.49			
C=CC/N=C1\S/C(=C\c2ccc(OC)cc2)C(=O)N1C	4.10	< 4.00	< 4.00		
COc1ccc(/C=C2/CN(C)/C(=N/c3ccc(C)cc3)S2)cc1	4.95	5.12	4.18		
COc1ccc(/C=C2\S/C(=N\c3ccc(C(C)(C)C)cc3)N(C)C2=O)cc1	< 4.00	< 4.00	4.33		
COc1ccc(/C=C2\S/C(=N\c3ccc(C)c(Cl)c3)N(C)C2=O)cc1	4.85	< 4.00	4.64		
COc1ccc(/C=C2/CN(C)/C(=N/c3ccc(C(C)(C)C)cc3)S2)cc1	4.59	4.54	4.63		
COc1ccc(/C=C2\S/C(=N\c3ccc(OC)cc3)N(C)C2=O)cc1	< 4.00	< 4.00	< 4.00		
COc1ccc(/C=C2/CN(C)/C(=N/c3ccc(C(F)(F)F)cc3)S2)cc1	4.46	4.62	4.14		
C=C1CN/C(=N/c2ccccc2)S1	< 4.00	< 4.00	< 4.00		
COc1ccc(/C=C2\S/C(=N\c3cc(C(F)(F)F)cc(C(F)(F)F)c3)N(C)C2=O)cc1	< 4.00	4.11	< 4.00		
COc1ccc(/C=C2/CN(C)/C(=N/c3ccc(F)cc3)S2)cc1	5.00	5.10	4.37		
COc1ccc(/C=C2\S/C(=N\c3c(C)cccc3C)N(C)C2=O)cc1	< 4.00	< 4.00	< 4.00		
